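1) Cells in 96-well plates. 2) Compound, 48 h, 5 concentrations. 3) Linear interpolation between surrounding doses. 4) Unreached endpoint = highest concentration. TGI marks complete inhibition of growth.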
Assays:
Assay in all cases: inhibition of tumour cell growth, NCI panel, 48 h
MDA-MB-435 = test system: MDA-MB-435
SK-MEL-2 melanoma = test system: SK-MEL-2 melanoma
NCI-H23 lung = test system: NCI-H23 lung
MOLT-4 leukemia = test system: MOLT-4 leukemia
SNB-75 CNS = test system: SNB-75 CNS
ACHN renal = test system: ACHN renal
SNB-19 CNS = test system: SNB-19 CNS
KM12 colon = test system: KM12 colon
BT-549 breast = test system: BT-549 breast
MDA-MB-231 breast = test system: MDA-MB-231 breast
OVCAR-8 ovarian = test system: OVCAR-8 ovarian
UACC-257 melanoma = test system: UACC-257 melanoma
SK-MEL-28 melanoma = test system: SK-MEL-28 melanoma
SF-295 CNS = test system: SF-295 CNS
OVCAR-5 ovarian = test system: OVCAR-5 ovarian
CCRF-CEM leukemia = test system: CCRF-CEM leukemia
SF-539 CNS = test system: SF-539 CNS

Compound	TGI (MDA-MB-435) [µM]	TGI (SK-MEL-2 melanoma) [µM]	TGI (NCI-H23 lung) [µM]	TGI (MOLT-4 leukemia) [µM]	TGI (SNB-75 CNS) [µM]	TGI (ACHN renal) [µM]	TGI (SNB-19 CNS) [µM]	TGI (KM12 colon) [µM]	TGI (BT-549 breast) [µM]	TGI (MDA-MB-231 breast) [µM]	TGI (OVCAR-8 ovarian) [µM]	TGI (UACC-257 melanoma) [µM]	TGI (SK-MEL-28 melanoma) [µM]	TGI (SF-295 CNS) [µM]	TGI (OVCAR-5 ovarian) [µM]	TGI (CCRF-CEM leukemia) [µM]	TGI (SF-539 CNS) [µM]
CCCN(CCCc1ccccc1)CCc1ccc2[nH]c(=S)[nH]c2c1	41.8	38.4	> 100	54	68.3	> 100	91.7	> 100	> 100	> 100	> 100	44.3	51.5	26	> 100		
CCCCCCCCCCCCCCCCOCC(CC(F)(F)P(=O)(OCC)OCC)OC(C)=O (configuration not stated)	33.9	35.9	34.6	> 100	32.9	27.3	15.8	23.8	28.8	30.1		33	32.4	24.4	34.7		
CNc1ccc2c(c1)[C@@]1(C)c3ccccc3[C@@H](C2)N1C	39.1	51.7	61.5	47.6		> 100	> 100	78.3	35.9	62.6		60.6		> 100	86.2	52.7	
CC[C@@H]1CC[C@@H]2[C@H](CC[C@]3(C)[C@@H](OS(=O)(=O)c4ccc(C)cc4)CC[C@@H]23)[C@H]1COS(=O)(=O)c1ccc(C)cc1	> 100			> 100		> 100	> 100		> 100		> 100	> 100	> 100	> 100		> 100	> 100
Cc1ccc(NC2=CC(=O)C(NO)c3ccccc32)cc1 (configuration not stated)		8.99	4.22	6.23	22.2	12.5	11.5	20.2	26.4	7.12	4.41	3.84	29.5	15.4	25		8.8
COc1cc(-c2cc(-c3ccccc3)nc(-c3c(OC)ccc4c(C)cc(=O)oc34)c2)cc(OC)c1OC	> 100	> 100	> 100	> 100	> 100	> 100	> 100	> 100	> 100	> 100	> 100	> 100		> 100		> 100	> 100
CC[C@]1(Cc2ccc(OC)c(OC)c2)C=[N+]([O-])O[C@H](OC2CCCC2(c2ccccc2)c2ccccc2)[C@@H]1OC(C)=O (some centres not stated)	7	14.7	19.9	> 23.8	9.62	10.2	18.5	8.89	27.9	> 41.3	7.98	19.2	4.81	17.5	44.2	> 100	
C=CCc1cccc2cc(C(=O)Nc3ccccc3)c(=N)oc12	> 100	38.5	> 100	> 100	> 100	> 100	> 100	> 100	> 100	> 100	> 100	> 100	> 100		> 100	> 100	> 100
CC(=O)OCC1OC(c2nc3ccccc3s2)=CC(OC(C)=O)C1OC(C)=O (configuration not stated)	> 100		> 100		> 100	> 100	> 100	> 100	> 100	> 100	> 100	> 100	> 100	> 100	> 100	> 100	> 100
COc1cc2c(cc1OCCCCN1C(=O)c3cccc4cccc(c34)C1=O)N=C[C@@H]1CCCN1C2=O	> 35.6	17.9	11.5	> 100		5.2	> 52.3	13.2	28.7	29.4	82.8	37.7	38.2	45.8	> 100	5.08	7.1
CN(C)CCNC(=O)c1cc([N+](=O)[O-])cc2c1Oc1ccccc1O2	> 100	56.3	> 100	51.1	38.9	> 100		> 100	> 100		> 100	> 100	> 100	> 100	> 100	> 100	> 100
O=c1ccn([C@@H]2C[C@@H]2CO)c(=O)[nH]1	> 100	> 100	> 100		> 100	> 100	> 100	> 100	> 100		> 100	> 100	> 100		> 100	> 100	> 100
O=c1c2nc3ccccc3c(=O)n2ncn1-c1ccccc1Cl	> 100	> 100	> 100		> 100	> 100	> 100	> 100	> 100	> 100	> 100	> 100	> 100	> 100	> 100	> 100	> 100
COc1cc(CO)c(CC(=O)NCCCc2ccccc2)cc1OC	> 100	> 100	> 100	> 100	> 100	> 100	> 100	> 100	> 100	> 100	> 100	> 100	> 100		> 100	> 100	
CC(=O)O[C@H]1[C@@H]2OC(=O)[C@@](O)(CC3CCCO3)[C@@H]2CC(=O)[C@](C)(O)CC/C=C(\C)CCC[C@@H]1C (some centres not stated)	> 100	> 100			> 100	> 100	> 100	> 100	70.4	63	> 100	> 100	44.5	> 100	> 100	68.4	36.7
CN(C)CCCNc1ccc([N+](=O)[O-])c2nc3ccccc3c(N)c12	2.26	2.69	2.78	3.42		1.61	3.23	1.53	4.75	2.53		> 10	> 10	1.53	> 10	2.99	1.82
CCOC(=O)c1c(N)sc2c1C(C)(C(=O)OCC)CC2 (configuration not stated)		> 100	> 100	> 100	> 100	> 100	> 100	> 100	> 100	> 100	> 100	> 100	> 100		> 100		
S=C1N(/N=C/c2c3ccccc3cc3ccccc23)C(=Nc2ccccc2)C(=Nc2ccccc2)N1c1ccccc1	> 100	> 100	> 100	> 100			> 100	> 100	> 100	> 100	> 100	> 100	> 100	> 100	> 100		> 100
CCOC(=O)c1nc2ccccc2nc1NCc1cc(OC)c(OC)c(OC)c1	71.8		> 100	> 100	> 100	> 100		> 100	> 100	> 100	> 100	> 100	> 100	> 100	> 100	> 100	> 100
O=C1NC(=S)N/C1=C\c1ccc(Br)s1	> 100	> 100	> 100	> 100		> 100	> 100	> 100	> 100	> 100		> 100	> 100	> 100	> 100	> 100	
CN1CCN(c2ncc3c(n2)sc2c(=O)n(-c4ccccc4)cnc23)CC1	> 100	> 100	> 100	> 100	> 100	> 100	> 100	> 100	> 100	> 100	> 100	> 100	> 100	> 100	> 100	> 100	
Cc1cc2c(cc1Cl)S(=O)(=O)OC(c1ccc([N+](=O)[O-])cc1)=N2	> 100			> 100	> 100	> 100	> 100	> 100	> 100	> 100	> 100	> 100	> 100	> 100		> 100	> 100
CC1=NN(c2nc(N)nc(CSc3nc4n(c(=S)n3)CCN4)n2)C(C)(C)C1	> 100	62.6	> 100	> 100	39.7	> 100	> 100	> 100	> 100	> 100	47.3	> 100	> 100	74		> 100	> 100
Cc1cn(C2CC(O)C(COC(=O)NCCC(F)(F)C(F)(F)C(F)(F)C(F)(F)F)O2)c(=O)[nH]c1=O (configuration not stated)	> 100		> 100	> 100	> 100	> 100	> 100	> 100	> 100	> 100	> 100	> 100	> 100	> 100	> 100	> 100	> 100
CCOC(=O)Cn1c(=O)c2nc(SC)sc2n(CC)c1=S	3.2	> 100	> 100	> 100	52.4	> 100	> 100	> 100		> 100	> 100	> 100	> 100	> 100	> 100	> 100	> 100
Cc1cc(N(CCC#N)CCC#N)ccc1/C(N=Nc1ccc(C(=O)O)cc1)=N\NC(=O)c1cc(Cl)ccc1O	> 100	> 100	> 100	> 100	53.5	> 100	55.9	> 100	> 100	63.1	93.1	> 100		34.7	> 100	> 100	
Cc1nn(C(=O)Cc2ccccc2)c2c1C(c1ccc(O)cc1O)SC(N)=N2 (configuration not stated)	> 100		> 100	> 100	> 100	> 100	> 100	> 100	> 100	> 100	> 100	> 100	> 100	> 100		> 100	> 100
CN(C)C(=S)/N=c1\ssc(=S)n1Cc1cccnc1	1.57	> 35.8	> 69.6	98.5	20.6	> 100	> 100	36.2		> 100	> 100	> 95.5	> 100	16.8	> 100	> 86.1	> 100
NC(=O)c1cc2ccc(O)cc2oc1=Nc1ccccc1	> 100	53	56	88.8	68.3	> 100	> 100	> 100	> 100	> 100	> 100	> 100	> 100	> 100	> 100	> 100	
O=C1CSC(c2ccc([N+](=O)[O-])cc2)N1c1ccc(-n2c(-c3ccccc3)nc3ccccc3c2=O)cc1 (configuration not stated)	> 100	> 100	> 100	> 100		> 100	> 100	> 100	> 100	> 100	> 100	> 100	> 100	> 100		> 100	> 100

Reference: PubChem BioAssay (NCI)
